Experimental data taken from patent US8871753B2, “Macrocyclic compounds and their use as kinase inhibitors” (Incyte Corporation, priority 2008, dated 2014).
pIC50: −log10 of the molar value. Structures can show the parent of a compound that is named as a salt. Where two headings read alike, the source gives them in different places. Values belong to the compound of their own block, whether it stands above or below them.

What was measured:
Format in all cases: biochemical
[1] = biological target: T1, human JAK1 (a.a. 837-1142) (Homo sapiens, UniProt P23458); test: In vitro JAK kinase assay (HTRF, phosphorylation of a biotinylated peptide), JAK1; conditions: read-out: JAK1 IC50
T1 construct: human JAK1 (a.a. 837-1142); His tag (N); made in house; host or cells: insect cells (baculovirus)
How it was run: (§1)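 Phosphorylation of a biotinylated peptide by the JAK kinase domain, detected by HTRF with Eu-Py20 and SA-APC. ATP was 90 μM for JAK1, 30 μM for JAK2 and 3 μM for JAK3. Reactions ran 1 h at room temperature and were stopped with EDTA, followed by 40 min antibody binding.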

[2] = biological target: T2, human JAK2 (a.a. 828-1132) (Homo sapiens, UniProt O60674); test: In vitro JAK kinase assay (HTRF, phosphorylation of a biotinylated peptide), JAK2
T2 construct: JAK2 (a.a. 828-1132); His tag (N); made in house; host or cells: insect cells (baculovirus)
How it was run: as §1

[3] = biological target: T3, human JAK3 (a.a. 781-1124) (Homo sapiens, UniProt P52333); test: In vitro JAK kinase assay (HTRF, phosphorylation of a biotinylated peptide), JAK3
T3 construct: JAK3 (a.a. 781-1124); His tag (N); made in house; host or cells: insect cells (baculovirus)
How it was run: as §1

[4] = biological target: TYK2 (Homo sapiens, UniProt P29597); test: TYK2 kinase inhibition (Table A1)
[5] = biological target: T4, Recombinant Human Anaplastic Lymphoma Kinase (Homo sapiens, UniProt Q9UM73); test: ALK HTRF kinase assay
T4 construct: purchased Invitrogen, Carlsbad, Calif
How it was run: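 IC50 was obtained from a logistic fit of signal versus log inhibitor concentration, using pre- and post-transition baselines and a Hill slope. The signal reported tyrosine phosphorylation of a biotinylated peptide by recombinant human kinase, detected as Eu-to-APC energy transfer.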

[6] = method AA1 (90 μM ATP) or AA2 (1000 μM ATP), not stated per value
[7] = method AA1 (30 μM ATP) or AA2 (1000 μM ATP), not stated per value
[8] = method AA1 (3 μM ATP) or AA2 (1000 μM ATP), not stated per value
[9] = compound at 500 nM or 1 mM, 90 μM ATP
[10] = percentage inhibition of the example compound at a concentration of 500 nM or 1 mM (not specified which)
[11] = compound at a concentration of 500 nM or 1 mM (not specified), cells shown as percentage

Sequence of TYK2 (P29597 whole entry): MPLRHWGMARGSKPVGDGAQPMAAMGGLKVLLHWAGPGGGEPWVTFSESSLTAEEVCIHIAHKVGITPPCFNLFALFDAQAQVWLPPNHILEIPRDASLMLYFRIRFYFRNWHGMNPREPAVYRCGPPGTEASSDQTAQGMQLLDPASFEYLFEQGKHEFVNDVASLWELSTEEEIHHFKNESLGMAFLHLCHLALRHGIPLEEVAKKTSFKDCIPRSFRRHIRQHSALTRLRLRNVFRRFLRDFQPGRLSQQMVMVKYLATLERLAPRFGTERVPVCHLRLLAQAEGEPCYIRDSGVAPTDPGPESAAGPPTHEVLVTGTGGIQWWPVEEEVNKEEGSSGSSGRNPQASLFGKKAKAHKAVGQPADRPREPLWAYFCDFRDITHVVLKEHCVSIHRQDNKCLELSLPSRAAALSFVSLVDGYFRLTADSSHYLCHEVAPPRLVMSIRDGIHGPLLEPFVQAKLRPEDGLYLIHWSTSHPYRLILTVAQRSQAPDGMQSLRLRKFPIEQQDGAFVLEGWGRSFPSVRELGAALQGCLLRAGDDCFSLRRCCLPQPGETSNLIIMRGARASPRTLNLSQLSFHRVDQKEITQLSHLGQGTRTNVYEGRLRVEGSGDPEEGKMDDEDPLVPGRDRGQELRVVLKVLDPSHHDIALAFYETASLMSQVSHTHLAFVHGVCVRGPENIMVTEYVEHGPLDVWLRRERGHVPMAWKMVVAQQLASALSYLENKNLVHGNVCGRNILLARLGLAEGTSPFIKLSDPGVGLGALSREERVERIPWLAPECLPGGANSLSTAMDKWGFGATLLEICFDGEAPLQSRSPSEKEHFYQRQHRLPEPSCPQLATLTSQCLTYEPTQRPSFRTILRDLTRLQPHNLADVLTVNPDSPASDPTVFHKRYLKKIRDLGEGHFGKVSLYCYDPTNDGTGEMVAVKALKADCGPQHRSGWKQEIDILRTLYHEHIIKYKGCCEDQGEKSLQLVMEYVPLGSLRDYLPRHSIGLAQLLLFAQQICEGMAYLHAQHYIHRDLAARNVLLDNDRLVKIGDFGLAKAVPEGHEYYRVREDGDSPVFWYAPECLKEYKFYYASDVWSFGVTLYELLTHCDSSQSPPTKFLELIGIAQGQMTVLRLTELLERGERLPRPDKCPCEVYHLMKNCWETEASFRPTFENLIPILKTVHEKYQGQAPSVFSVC
T3 sequence (P52333 781-1124): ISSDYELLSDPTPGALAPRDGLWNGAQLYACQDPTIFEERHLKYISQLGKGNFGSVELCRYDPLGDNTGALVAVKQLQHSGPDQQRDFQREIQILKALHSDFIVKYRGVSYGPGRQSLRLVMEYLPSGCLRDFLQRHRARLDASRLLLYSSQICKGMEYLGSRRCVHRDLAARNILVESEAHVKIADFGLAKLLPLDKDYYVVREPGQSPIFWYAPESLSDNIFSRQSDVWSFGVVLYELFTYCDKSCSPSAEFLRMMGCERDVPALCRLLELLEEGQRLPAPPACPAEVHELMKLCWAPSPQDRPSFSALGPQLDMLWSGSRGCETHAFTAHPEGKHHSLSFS
T1 sequence (P23458 849-1154): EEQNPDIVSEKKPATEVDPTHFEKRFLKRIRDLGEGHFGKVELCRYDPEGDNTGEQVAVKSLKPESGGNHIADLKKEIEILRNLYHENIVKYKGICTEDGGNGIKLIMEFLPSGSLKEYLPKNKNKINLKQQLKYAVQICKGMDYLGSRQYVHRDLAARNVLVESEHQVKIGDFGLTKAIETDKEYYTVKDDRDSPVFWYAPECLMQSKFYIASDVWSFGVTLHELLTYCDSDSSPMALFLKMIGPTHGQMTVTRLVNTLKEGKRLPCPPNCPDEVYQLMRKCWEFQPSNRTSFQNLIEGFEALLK
T4 sequence (Q9UM73 19-1620): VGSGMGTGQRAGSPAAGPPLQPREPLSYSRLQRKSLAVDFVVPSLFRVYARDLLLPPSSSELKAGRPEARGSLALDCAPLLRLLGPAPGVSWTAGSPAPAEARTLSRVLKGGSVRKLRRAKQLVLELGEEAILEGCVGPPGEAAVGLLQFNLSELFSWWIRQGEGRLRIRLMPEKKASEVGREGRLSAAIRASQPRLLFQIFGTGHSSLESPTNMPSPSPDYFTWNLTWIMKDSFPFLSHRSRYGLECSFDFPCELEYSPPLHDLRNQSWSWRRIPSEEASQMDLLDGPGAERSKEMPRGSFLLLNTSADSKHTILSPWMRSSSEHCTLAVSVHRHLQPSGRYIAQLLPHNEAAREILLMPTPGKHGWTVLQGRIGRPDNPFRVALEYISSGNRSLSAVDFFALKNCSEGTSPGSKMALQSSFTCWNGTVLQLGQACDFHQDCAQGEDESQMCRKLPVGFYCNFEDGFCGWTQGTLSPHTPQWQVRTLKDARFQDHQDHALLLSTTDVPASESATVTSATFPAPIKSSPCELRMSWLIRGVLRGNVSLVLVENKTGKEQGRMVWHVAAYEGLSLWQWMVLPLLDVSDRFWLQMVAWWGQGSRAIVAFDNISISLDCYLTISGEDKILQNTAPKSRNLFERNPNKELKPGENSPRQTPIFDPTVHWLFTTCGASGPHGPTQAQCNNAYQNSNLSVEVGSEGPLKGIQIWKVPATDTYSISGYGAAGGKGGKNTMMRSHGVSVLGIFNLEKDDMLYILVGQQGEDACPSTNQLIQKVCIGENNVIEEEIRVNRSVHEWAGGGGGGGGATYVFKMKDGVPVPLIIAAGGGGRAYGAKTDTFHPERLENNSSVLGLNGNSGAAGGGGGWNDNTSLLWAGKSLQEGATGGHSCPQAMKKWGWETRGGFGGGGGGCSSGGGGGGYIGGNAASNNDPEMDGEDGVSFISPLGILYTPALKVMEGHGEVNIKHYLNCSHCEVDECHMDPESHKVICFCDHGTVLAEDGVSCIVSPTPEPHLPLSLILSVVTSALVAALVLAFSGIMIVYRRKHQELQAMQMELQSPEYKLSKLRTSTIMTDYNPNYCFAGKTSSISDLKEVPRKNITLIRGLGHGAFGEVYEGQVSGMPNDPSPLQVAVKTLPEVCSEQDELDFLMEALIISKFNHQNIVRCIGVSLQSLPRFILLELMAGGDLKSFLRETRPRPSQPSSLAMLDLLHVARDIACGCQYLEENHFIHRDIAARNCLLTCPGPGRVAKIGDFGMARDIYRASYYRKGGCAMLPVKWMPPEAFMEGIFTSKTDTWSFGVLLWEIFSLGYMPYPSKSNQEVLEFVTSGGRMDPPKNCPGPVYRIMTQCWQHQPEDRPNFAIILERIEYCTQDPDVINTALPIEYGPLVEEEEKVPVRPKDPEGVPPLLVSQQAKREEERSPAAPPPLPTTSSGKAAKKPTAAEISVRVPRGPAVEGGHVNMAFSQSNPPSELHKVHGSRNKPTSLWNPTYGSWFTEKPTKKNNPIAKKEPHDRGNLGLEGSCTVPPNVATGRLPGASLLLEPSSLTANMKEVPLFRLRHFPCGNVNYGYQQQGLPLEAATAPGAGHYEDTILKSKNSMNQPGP
T2 sequence (O60674 828-1132): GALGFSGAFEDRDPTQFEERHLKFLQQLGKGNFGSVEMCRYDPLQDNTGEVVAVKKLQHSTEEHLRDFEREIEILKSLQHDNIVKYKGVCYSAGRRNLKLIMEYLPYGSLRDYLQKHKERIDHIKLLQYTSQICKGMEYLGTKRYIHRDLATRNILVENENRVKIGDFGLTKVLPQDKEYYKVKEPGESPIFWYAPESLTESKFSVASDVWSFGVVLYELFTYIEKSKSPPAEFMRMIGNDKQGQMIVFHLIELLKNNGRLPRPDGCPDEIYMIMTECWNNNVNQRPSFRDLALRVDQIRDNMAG

pIC50 ([1]; Table B1): 9.22 | pIC50 ([2]; Table B1): 10.00 | pIC50 ([3]; Table B1): 8.28 | pIC50 ([4]; Table B1): 9.08 | pIC50 ([5]; Table B1, cells without percent sign): 6.55
Compound: N#Cc1ccc(S(=O)(=O)Nc2ccc3cc2CCc2cccc(c2)Nc2ncc(Cl)c(n2)N3)cc1 [Example B154, N-[6-Chloro-2,4,8,22-tetraazatetracyclo[14.3.1.1(3,7).1(9,13)]docosa-1(20), 3(22),4,6,9(21),10,12,16,18-nonaen-12-yl]-4-cyanobenzenesulfonamide trifluoroacetate]

pIC50 [1, 6]: 8.82 | pIC50 [2, 7]: 7.10 | pIC50 [3, 8]: < 6.40 | pIC50 [4]: 7.14 | ALK % of inhibition at a concentration of 500 nM or 1 mM [5, 9]: 13%
Compound: N#Cc1c(F)cccc1N1CCC(CC(=O)Nc2ccc3cc2CCc2cncc(c2)Nc2ncc(Cl)c(n2)N3)CC1 [Example A234, N-[6-Chloro-2,4,8,18,22-pentaazatetracyclo[14.3.1.1(3,7).1(9,13)]docosa-1(20),3(22),4,6,9(21),10,12,16,18-nonaen-12-yl]-2-[1-(2-cyano-3-fluorophenyl)piperidin-4-yl]acetamide tris(trifluoroacetate)]

pIC50 ([1]; Table D1): 8.74 | pIC50 ([2]; Table D1): 9.15 | pIC50 ([3]; Table D1): 7.92 | pIC50 ([4]; Table D1): 8.40 | pIC50 ([5]; Table D1, 90 μM ATP): 6.97
Compound: Clc1cnc2nc1Nc1cccc(c1)OCCc1cc(cc(-c3ccc(N4CCNCC4)nc3)c1)N2 [Example D33, 6-Chloro-19-(6-piperazin-1-ylpyridin-3-yl)-14-oxa-2,4,8,23-tetraazatetracyclo[15.3.1.1(3,7).1(9,13)]tricosa-1(21),3(23),4,6,9(22),10,12,17,19-nonaene tris(trifluoroacetate)]

pIC50 ([1]; Table B1): 8.70 | pIC50 ([2]; Table B1): 8.74 | pIC50 ([3]; Table B1): 8.38 | pIC50 ([4]; Table B1): 8.30 | ALK % of inhibition at a concentration of 500 nM or 1 mM [5, 10]: 19%
Compound: O=C(NCCNS(=O)(=O)C1CC1)Nc1ccc2cc1CCc1cccc(c1)Nc1ncc(Cl)c(n1)N2 [Example B327, N-{2-[({[6-Chloro-2,4,8,22-tetraazatetracyclo[14.3.1.1(3,7).1(9,13)]docosa-1(20),3(22),4,6,9(21),10,12,16,18-nonaen-12-yl]amino}carbonyl)amino]ethyl}cyclopropanesulfonamide trifluoroacetate]

pIC50 ([1]; Table B1): 8.55 | pIC50 ([2]; Table B1): 7.92 | pIC50 ([3]; Table B1): 7.29 | pIC50 ([4]; Table B1): 7.52 | ALK % of inhibition at a concentration of 500 nM or 1 mM [5, 11]: 15%
Compound: O=C(Nc1ccc2cc1CCc1cccc(c1)Nc1ncc(Cl)c(n1)N2)N[C@H]1CCN(C(=O)c2cccnc2)C1 [Example B171, N-[6-Chloro-2,4,8,22-tetraazatetracyclo[14.3.1.1(3,7).1(9,13)]docosa-1(20),3(22),4,6,9(21),10,12,16,18-nonaen-12-yl]-N′-[(3S)-1-(pyridin-3-ylcarbonyl)pyrrolidin-3-yl]urea bis(trifluoroacetate)]

pIC50 [1, 6]: 8.01 | pIC50 [2, 7]: 7.07 | pIC50 [3, 8]: < 6.40 | pIC50 [4]: 7.01 | ALK % of inhibition at a concentration of 500 nM or 1 mM [5, 9]: 46%
Compound: Cc1noc(C)c1S(=O)(=O)N1CCC(CC(=O)Nc2ccc3cc2CCc2cncc(c2)Nc2ncc(Cl)c(n2)N3)CC1 [Example A231, N-[6-chloro-2,4,8,18,22-pentaazatetracyclo[14.3.1.1(3,7).1(9,13)]docosa-1(20),3(22),4,6,9(21),10,12,16,18-nonaen-12-yl]-2-{1-[(3,5-dimethylisoxazol-4-yl)sulfonyl]piperidin-4-yl}acetamide bis(trifluoroacetate)]

pIC50 ([1]; Table B1): 8.17 | pIC50 ([2]; Table B1): 8.03 | pIC50 ([3]; Table B1): 6.96 | pIC50 ([4]; Table B1): 7.66 | ALK % of inhibition at a concentration of 500 nM or 1 mM [5, 11]: 29%
Compound: Cc1cc(C(=O)N2CCC(NC(=O)Nc3ccc4cc3CCc3cccc(c3)Nc3ncc(Cl)c(n3)N4)CC2)no1 [Example B263, N-[6-Chloro-2,4,8,22-tetraazatetracyclo[14.3.1.1(3,7).1(9,13)]docosa-1(20),3(22),4,6,9(21),10,12,16,18-nonaen-12-yl]-N′-{1-[(5-methylisoxazol-3-yl)carbonyl]piperidin-4-yl}urea trifluoroacetate]

pIC50 ([1]; Table B1): 7.70 | pIC50 ([2]; Table B1): 6.77 | pIC50 ([3]; Table B1): < 6.40 | pIC50 ([4]; Table B1): 6.84 | ALK % of inhibition at a concentration of 500 nM or 1 mM [5, 10]: 67%
Compound: N#Cc1cccnc1N1CCN(C(=O)Nc2ccc3cc2CCc2cncc(c2)Nc2ncc(Cl)c(n2)N3)CC1 [Example B311, N-[6-Chloro-2,4,8,18,22-pentaazatetracyclo[14.3.1.1(3,7).1(9,13)]docosa-1(20),3(22),4,6,9(21),10,12,16,18-nonaen-12-yl]-4-(3-cyanopyridin-2-yl)piperazine-1-carboxamide tris(trifluoroacetate)]

pIC50 ([1]; Table B1): 7.89 | pIC50 ([2]; Table B1): 6.84 | pIC50 ([3]; Table B1): < 6.40 | pIC50 ([4]; Table B1): < 6.40 | ALK % of inhibition at a concentration of 500 nM or 1 mM [5, 10]: 27%
Compound: CN(Cc1ccc2cc1CCc1cncc(c1)Nc1ncc(Cl)c(n1)N2)CC1CCN(S(=O)(=O)c2ccccc2)CC1 [Example B341, 1-[6-Chloro-2,4,8,18,22-pentaazatetracyclo[14.3.1.1(3,7).1(9,13)]docosa-1(20),3(22),4,6,9(21),10,12,16,18-nonaen-12-yl]-N-methyl-N-{[1-(phenylsulfonyl)piperidin-4-yl]methyl}methanamine tris(trifluoroacetate)]

pIC50 [1]: < 6.00 | pIC50 [2]: 6.05 | pIC50 [3]: < 6.00 | pIC50 [4]: < 6.00 | pIC50 [5]: < 5.00
Compound: O=C1Nc2cccc(c2)Nc2ncc(Cl)c(n2)Nc2cccc1c2 [Example C1, 6-Chloro-2,4,8,15,22-pentaazatetracyclo[14.3.1.1(3,7).1(9,13)]docosa-1(20),3(22),4,6,9(21),10,12,16,18-nonaen-14-one hydrochloride]

pIC50 ([1]; Table D1): 9.05 | pIC50 ([2]; Table D1): 9.15 | pIC50 ([3]; Table D1): 8.14 | pIC50 ([4]; Table D1): 8.68 | pIC50 ([5]; Table D1, 90 μM ATP): 6.74
Compound: NC(=O)N1CCN(c2ccc(-c3cc4cc(c3)Nc3ncc(Cl)c(n3)Nc3cccc(c3)OCC4)cn2)CC1 [Example D40, 4-{5-[6-Chloro-14-oxa-2,4,8,23-tetraazatetracyclo[15.3.1.1(3,7).1(9,13)]tricosa-1(21),3(23),4,6,9(22),10,12,17,19-nonaen-19-yl]pyridin-2-yl}piperazine-1-carboxamide bis(trifluoroacetate)]

pIC50 [1, 6]: 8.62 | pIC50 [2, 7]: 8.32 | pIC50 [3, 8]: < 7.00 | pIC50 [4]: 8.19 | ALK % of inhibition at a concentration of 500 nM or 1 mM [5, 9]: 41%
Compound: N#Cc1cccc(NC(=O)N2CCC(CC(=O)Nc3ccc4cc3CCc3cncc(c3)Nc3ncc(Cl)c(n3)N4)CC2)c1 [Example A142, 4-(2-{[6-Chloro-2,4,8,18,22-pentaazatetracyclo[14.3.1.1(3,7).1(9,13)]docosa-1(20),3(22),4,6,9(21),10,12,16,18-nonaen-12-yl]amino}-2-oxoethyl)-N-(3-cyanophenyl)piperidine-1-carboxamide bis(trifluoroacetate)]

pIC50 ([1]; Table D1): 8.38 | pIC50 ([2]; Table D1): 8.10 | pIC50 ([3]; Table D1): 7.39 | pIC50 ([4]; Table D1): 7.55 | pIC50 ([5]; Table D1, 90 μM ATP): 6.31
Compound: Clc1cnc2nc1Nc1cccc(c1)OCCc1cc(Br)cc(c1)N2 [Example D22, 19-Bromo-6-chloro-14-oxa-2,4,8,23-tetraazatetracyclo[15.3.1.1(3,7).1(9,13)]tricosa-1(21),3(23),4,6,9(22),10,12,17,19-nonaene trifluoroacetate]

pIC50 [1, 6]: 7.92 | pIC50 [2, 7]: 9.00 | pIC50 [3, 8]: 7.66 | pIC50 [4]: 7.43 | ALK % of inhibition at a concentration of 500 nM or 1 mM [5, 9]: 33%
Compound: NC(=O)COc1cc2cc(c1)Nc1nc(ncc1Cl)Nc1cccc(c1)CC2 [Example A23, 2-{[6-Chloro-2,4,8,22-tetraazatetracyclo[14.3.1.1(3,7).1(9,13)]docosa-1(20),3(22),4,6,9(21),10,12,16,18-nonaen-11-yl]oxy}acetyl)acetamide trifluoroacetate]
